From patent publication US11872226B2, “N-benzyl-2-phenoxybenzamide derivatives as prostaglandin E2 (PGE2) receptors modulators” (MEDIBIOFARMA, S.L., priority 2019, dated 2024)

Experiments:
[1] = target: T1, human EP2 receptor (Homo sapiens, UniProt P43116); test: Competition binding in human EP2 receptor; conditions: [3H]-Prostaglandin E2 competition, membranes from EP2 cell line
T1 construct: purchased Millipore HTS185M
Description: (§1) The compounds of the present invention were assayed for binding at human EP1, EP2, EP3 and EP4 receptors and were tested at several concentrations for IC50 determination.
Competition Binding in Human EP2 Receptor:
Prostaglandin EP2 receptor competition binding experiments were carried out in a polypropylene 96-well microplate plate with binding buffer (Hepes 50 mM, CaCl2 1 mM, MgCl2 5 mM, pH=7.4). In each well was incubated 10 μg of membranes from EP2 cell line (Millipore HTS185M, protein concentration=2000 μg/ml), 7.5 nM [3H]-Prostaglandin E2 (169.8 Ci/mmol, 0.1 mCi/ml, Perkin Elmer NET428250UC) and compounds studied and standard. Non-specific binding was determined in the presence of PGE2 200 μM (Cayman 14010). The reaction mixture (Vt: 250 μl/well) was incubated at 25° C. for 90 min, 200 μL was transferred to GF/C 96-well plate (Millipore, Madrid, Spain) after was filtered and washed four times with 250 μl wash buffer (Hepes 50 mM, NaCl 500 mM, pH=7.4), before measuring in a microplate beta scintillation counter (Microbeta Trilux, Perkin Elmer, Madrid, Spain). (Wilson et al., Br J Pharmacol 2006; 148:326-339).
(§2) The inhibition constants (Ki) were calculated using the Cheng Prusoff equation
(§3) [formula] where L=concentration of radioligand in the assay, and KD=affinity of the radioligand for the receptor. A scatchard plot is used to determine the KD.

[2] = target: T2, human EP4 receptor (Homo sapiens, UniProt P35408); test: Competition binding in human EP4 receptor; conditions: [3H]-Prostaglandin E2 competition, membranes from HEK-EP4 cell line
T2 construct: expressed in transfected cells; host or cells: HEK-EP4 cell line; membranes prepared in house
Description: as §1
Competition Binding in Human EP4 Receptor:
Prostaglandin EP4 receptor competition binding experiments were carried out in a multiscreen GF/B 96-well plate (Millipore, Madrid, Spain) pretreated with binding buffer (Mes 25 mM, EDTA 1 mM, MgCl2 10 mM, pH=6.0). In each well was incubated 35 μg of membranes from HEK-EP4 cell line and prepared in our laboratory (Lot: A003/27-04-2011, protein concentration=2803 μg/ml), 1 nM [3H]-Prostaglandin E2 (169.8 Ci/mmol, 0.1 mCi/ml, Perkin Elmer NET428250UC) and compounds studied and standard. Non-specific binding was determined in the presence of PGE2 10 μM (Cayman 14010). The reaction mixture (Vt: 250 μl/well) was incubated at 25° C. for 120 min, 200 μL was transferred to GF/B 96-well plate (Millipore, Madrid, Spain) after was filtered and washed six times with 250 μl wash buffer (Mes 25 mM, BSA 0.01%, pH=6.0), before measuring in a microplate beta scintillation counter (Microbeta Trilux, Perkin Elmer, Madrid, Spain). (Abramovitz et al., Biochim Biophys Acta 2000; 1483:285-293).
as §2, §3

T1 sequence (P43116 whole entry): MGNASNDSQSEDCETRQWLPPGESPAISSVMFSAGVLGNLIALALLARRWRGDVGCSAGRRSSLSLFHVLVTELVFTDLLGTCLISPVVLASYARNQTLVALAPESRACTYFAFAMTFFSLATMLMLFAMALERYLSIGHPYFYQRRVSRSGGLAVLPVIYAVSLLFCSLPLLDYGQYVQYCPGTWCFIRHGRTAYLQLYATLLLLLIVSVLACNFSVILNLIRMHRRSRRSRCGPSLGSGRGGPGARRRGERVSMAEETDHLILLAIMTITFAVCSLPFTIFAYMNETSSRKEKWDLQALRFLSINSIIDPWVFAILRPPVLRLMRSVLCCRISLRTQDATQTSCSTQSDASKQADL
T2 sequence (P35408 whole entry): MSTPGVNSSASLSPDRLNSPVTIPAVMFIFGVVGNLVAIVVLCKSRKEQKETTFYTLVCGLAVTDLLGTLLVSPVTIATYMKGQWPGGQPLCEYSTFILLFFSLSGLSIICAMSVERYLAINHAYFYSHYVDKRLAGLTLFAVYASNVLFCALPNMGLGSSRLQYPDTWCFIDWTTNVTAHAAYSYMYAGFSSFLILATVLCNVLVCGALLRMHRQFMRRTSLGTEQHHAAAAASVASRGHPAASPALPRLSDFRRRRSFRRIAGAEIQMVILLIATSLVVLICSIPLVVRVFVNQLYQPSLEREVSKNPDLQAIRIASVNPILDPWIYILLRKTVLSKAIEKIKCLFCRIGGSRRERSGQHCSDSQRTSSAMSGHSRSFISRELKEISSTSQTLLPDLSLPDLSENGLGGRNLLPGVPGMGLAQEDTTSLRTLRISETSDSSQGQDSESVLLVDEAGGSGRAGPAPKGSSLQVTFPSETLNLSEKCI

Row | SMILES | Ki [1] | Ki [2]
1 | O=C(O)c1ccc(CNC(=O)c2cc(-c3ccccc3)ccc2Oc2ccc(F)cc2)cc1 [Example 2, 4-((4-(4-fluorophenoxy)-[1,1′-biphenyl]-3-carboxamido)methyl)benzoic acid] | ≥ 10000 nM | < 100 nM
2 | O=C(O)c1ccc(CNC(=O)c2cc(-c3ccccc3F)ccc2Oc2ccc(F)cc2)cc1 [Example 6, 4-((2′-fluoro-4-(4-fluorophenoxy)-[1,1′-biphenyl]-3-carboxamido)methyl) benzoic acid] | 1000 to 10000 nM | < 100 nM
3 | N#Cc1cccc(-c2ccc(Oc3ccc(F)cc3)c(C(=O)NCc3ccc(C(=O)O)cc3)c2)c1 [Example 8, 4-((3′-cyano-4-(4-fluorophenoxy)-[1,1′-biphenyl]-3-carboxamido)methyl) benzoic acid] | < 100 nM | < 100 nM
4 | O=C(O)c1ccc(CNC(=O)c2cc(-c3ccncc3F)ccc2Oc2ccc(F)cc2)cc1 [Example 9, 4-((2-(4-fluorophenoxy)-5-(3-fluoropyridin-4-yl)benzamido)methyl)benzoic acid] | 1000 to 10000 nM | < 100 nM
5 | O=C(O)c1ccc(CNC(=O)c2cc(-c3cccnc3)ccc2Oc2ccc(F)cc2)cc1 [Example 10, 4-((2-(4-fluorophenoxy)-5-(pyridin-3-yl)benzamido)methyl)benzoic acid] | 1000 to 10000 nM | < 100 nM
6 | O=C(O)c1ccc(CNC(=O)c2cc(-c3ccncc3Cl)ccc2Oc2ccc(F)cc2)cc1 [Example 11, 4-((2-(4-fluorophenoxy)-5-(3-chloropyridin-4-yl)benzamido)methyl)benzoic acid] | ≥ 10000 nM | 100 to 1000 nM
7 | O=C(O)c1ccc(CNC(=O)c2cc(-c3cncnc3)ccc2Oc2ccc(F)cc2)cc1 [Example 12, 4-((2-(4-fluorophenoxy)-5-(pyrimidin-5-yl)benzamido)methyl)benzoic acid] | ≥ 10000 nM | 100 to 1000 nM
8 | O=C(O)c1ccc(CNC(=O)c2cc(-c3cccs3)ccc2Oc2ccc(F)cc2)cc1 [Example 18, 4-((2-(4-fluorophenoxy)-5-(thiophen-2-yl)benzamido)methyl)benzoic acid] | 1000 to 10000 nM | < 100 nM
9 | O=C(O)c1ccc(CNC(=O)c2cc(-c3cc(F)cc(F)c3)ccc2Oc2ccc(F)cc2)cc1 [Example 19, 4-((3′,5′-difluoro-4-(4-fluorophenoxy)-[1,1′-biphenyl]-3-carboxamido)methyl)benzoic acid] | < 100 nM | < 100 nM
10 | O=C(O)c1ccc(CNC(=O)c2cc(-c3cccc(Cl)c3)ccc2Oc2ccc(F)cc2)cc1 [Example 20, 4-((3′-chloro-4-(4-fluorophenoxy)-[1,1′-biphenyl]-3-carboxamido)methyl) benzoic acid] | 1000 to 10000 nM | < 100 nM
11 | O=C(O)c1ccc(CNC(=O)c2cc(-c3cccc(-c4ccncc4)c3)ccc2Oc2ccc(F)cc2)cc1 [Example 26, 4-((4-(4-fluorophenoxy)-3′-(pyridin-4-yl)-[1,1′-biphenyl]-3-ylcarboxamido)methyl)benzoic acid] | ≥ 10000 nM | < 100 nM
12 | NC(=O)c1ccc(-c2ccc(Oc3ccc(F)cc3)c(C(=O)NCc3ccc(C(=O)O)cc3)c2)o1 [Example 27, 4-((5-(5-carbamoylfuran-2-yl)-2-(4-fluorophenoxy)benzamido)methyl) benzoic acid] | 1000 to 10000 nM | 1000 to 10000 nM
13 | O=C(O)c1ccc(CNC(=O)c2cc(-c3cccc(C(F)(F)F)c3)ccc2Oc2ccc(F)cc2)c(F)c1 [Example 28, 3-fluoro-4-((4-(4-fluorophenoxy)-3′-(trifluoromethyl)-[1,1′-biphenyl]-3-ylcarboxamido)methyl)benzoic acid] | 1000 to 10000 nM | < 100 nM
14 | C[C@@H](NC(=O)c1cc(-c2cccc(C(F)(F)F)c2)ccc1Oc1ccc(F)cc1)c1ccc(C(=O)O)cc1 [Example 29, (R)-4-(1-(4-(4-fluorophenoxy)-3′-(trifluoromethyl)-[1,1′-biphenyl]-3-carboxamido)ethyl)benzoic acid] | 1000 to 10000 nM | < 100 nM
15 | O=C(O)c1ccc(C2(NC(=O)c3cc(-c4cccc(C(F)(F)F)c4)ccc3Oc3ccc(F)cc3)CC2)cc1 [Example 30, 4-(1-(4-(4-fluorophenoxy)-3′-(trifluoromethyl)-[1,1′-biphenyl]-3-carboxamido)cyclopropyl)benzoic acid] | 1000 to 10000 nM | < 100 nM
16 | N#Cc1cc(F)cc(-c2ccc(Oc3ccc(F)cc3)c(C(=O)NCc3ccc(C(=O)O)cc3)c2)c1 [Example 31, 4-((3′-fluoro-5′-cyano-4-(4-fluorophenoxy)-[1,1′-biphenyl]-3-carboxamido)methyl)benzoic acid] | 1000 to 10000 nM | < 100 nM
17 | N#Cc1cc(Cl)cc(-c2ccc(Oc3ccc(F)cc3)c(C(=O)NCc3ccc(C(=O)O)cc3)c2)c1 [Example 32, 4-((3′-chloro-5′-cyano-4-(4-fluorophenoxy)-[1,1′-biphenyl]-3-carboxamido)methyl)benzoic acid] | 1000 to 10000 nM | < 100 nM

Next, values leading:

Row | Ki [1] | Ki [2] | SMILES
18 | ≥ 10000 nM | < 100 nM | O=C(O)c1ccc(CNC(=O)c2cc(-c3ccncc3)ccc2Oc2ccc(F)cc2)cc1 [Example 1, 4-((2-(4-fluorophenoxy)-5-(pyridin-4-yl)benzamido)methyl)benzoic acid]
19 | ≥ 10000 nM | < 100 nM | O=C(O)c1ccc(CNC(=O)c2cc(-c3ccc(Cl)cc3)ccc2Oc2ccc(F)cc2)cc1 [Example 3, 4-((4′-chloro-4-(4-fluorophenoxy)-[1,1′-biphenyl]-3-carboxamido)methyl) benzoic acid]
20 | < 100 nM | < 100 nM | O=C(O)c1ccc(CNC(=O)c2cc(-c3ccc(F)cc3)ccc2Oc2ccc(F)cc2)cc1 [Example 4, 4-((4′-fluoro-4-(4-fluorophenoxy)-[1,1′-biphenyl]-3-carboxamido)methyl) benzoic acid]
21 | < 100 nM | < 100 nM | O=C(O)c1ccc(CNC(=O)c2cc(-c3cccc(F)c3)ccc2Oc2ccc(F)cc2)cc1 [Example 5, 4-((3′-fluoro-4-(4-fluorophenoxy)-[1,1′-biphenyl]-3-carboxamido)methyl) benzoic acid]
22 | 1000 to 10000 nM | < 100 nM | N#Cc1ccc(-c2ccc(Oc3ccc(F)cc3)c(C(=O)NCc3ccc(C(=O)O)cc3)c2)cc1 [Example 7, 4-((4′-cyano-4-(4-fluorophenoxy)-[1,1′-biphenyl]-3-carboxamido)methyl) benzoic acid]
23 | < 100 nM | 100 to 1000 nM | O=C(O)c1ccc(CNC(=O)c2cc(-c3ccc(F)c(F)c3)ccc2Oc2ccc(F)cc2)cc1 [Example 13, 4-((3′,4′-difluoro-4-(4-fluorophenoxy)-[1,1′-biphenyl]-3-carboxamido)methyl)benzoic acid]
24 | 100 to 1000 nM | 1000 to 10000 nM | O=C(O)c1ccc(CNC(=O)c2cc(-c3ccc(C(F)(F)F)cc3)ccc2Oc2ccc(F)cc2)cc1 [Example 14, 4-((4-(4-fluorophenoxy)-4′-(trifluoromethyl)-[1,1′-biphenyl]-3-carboxamido)methyl)benzoic acid]
25 | < 100 nM | < 100 nM | O=C(O)c1ccc(CNC(=O)c2cc(-c3cccc(C(F)(F)F)c3)ccc2Oc2ccc(F)cc2)cc1 [Example 15, 4-((4-(4-fluorophenoxy)-3′-(trifluoromethyl)-[1,1′-biphenyl]-3-carboxamido)methyl)benzoic acid]
26 | < 100 nM | < 100 nM | O=C(O)c1ccc(CNC(=O)c2cc(-c3cc(F)cc(C(F)(F)F)c3)ccc2Oc2ccc(F)cc2)cc1 [Example 21, 4-((3′-fluoro-4-(4-fluorophenoxy)-5′-(trifluoromethyl)-[1,1′-biphenyl]-3-carboxamido)methyl)benzoic acid]
